We go through three compounds from patent US4866063A, “Diol metabolites of 7-phenyl-1,2,4-triazolo[2,3-c]pyrimidines-5-amines” (priority 1988, dated 1989).

“Also recorded” adds a separate entry of the source. Read-outs that look alike come from different tables or passages of the source.

Series [1] in a line: Cardiotoxicity of compounds I and II in rats.
The conditions of series [2]: cited from earlier work.
The conditions of series [3]: rat, in vivo.
The nature of series [4]: Metabolism of compound II in man. It counts as in vivo.
Series [5] can be described thus: Metabolism of compound II in the rat. Type of series: in vivo.
The nature of series [6]: Plasma concentrations of compound III two hours after dosing on day 1. Particulars: for concentration at 2 h: rat, plasma, po, gavage, two hours after dosing on day 1. Type of series: in vivo, female Charles River CD rats. Here is the method: (§1) Compound III was administered by gavage at 40 mg/kg, 80 mg/kg, 160 mg/kg and 320 mg/kg to female Charles River CD rats (10/dosage) once daily for three days. One additional group of rats received vehicle for three days to serve as controls. […] Additional groups of rats (3/dosage) were sacrificed two hours after dosing on day 1, blood collected, and samples analyzed to determine plasma concentrations of compound III.

Series [7] deals with heart or adrenal gland. As to the kind of experiment: Cardiotoxicity study of compound III in rats (gross and histologic examination, mortality). Type of series: in vivo, female Charles River CD rats. The settings on record: conclusion of the study. The method, then: as §1
A short description of series [8]: Bioavailability compared with precursor compounds. It counts as in vivo. The settings on record: vs compounds I and II.
Series [9] is described as follows: Water solubility compared with precursor compounds. Type of series: physicochemical. Particulars: vs compounds I and II.

As to `CCOCCc1c(-c2ccccc2)nc(N)n2ncnc12` [compound I, 8-(2-ethoxyethyl)-7-phenyl-1,2,4-triazolo[2,3-c]pyrimidine-5-amine], in series [1], the Cardiotoxicity entry is reported as “cardiotoxicity seen”. Besides, in series [2] (acute, mammals), the Glomerular filtration rate result is recorded as “increases” and the Renal blood flow entry is “increases”. Besides, in series [2] (chronic oral dosing), the Glomerular filtration rate entry is recorded as “significant increases”, the Renal blood flow entry is listed as “significant increases” and the Sodium excretion result is on record as “significant increases”. In addition, the “Myocardial lesions and associated changes” value in series [3] is “myocardial lesions and associated changes found in rats”.

Take `Nc1nc(-c2ccccc2)c(CCO)c2ncnn12` [compound II, 8-(2-hydroxyethyl)-7-phenyl 1,2,4-triazolo[2,3-c]pyrimidine-5-amine]: in series [4], the “Aliphatic hydroxylation (similar metabolism)” value is on record as “not seen in man”. Besides, the “Aliphatic hydroxylation (metabolism)” value in series [5] is reported as “undergoes aliphatic hydroxylation in the rat”. The Cardiotoxicity result in series [1] is “cardiotoxicity seen”. Also, the “Myocardial lesions and associated changes” value in series [3] is “myocardial lesions and associated changes found in rats”.

Turning to `Nc1nc(-c2ccccc2)c(C(O)CO)c2ncnn12` (stereo not shown) [compound III, 8-(1,2-dihydroxyethyl)-7-phenyl-1,2,4-triazolo[2,3-c]pyrimidine-5-amine], the “Plasma concentrations relative to those expected at cardiotoxic dosages of compounds I and II” value in series [6] (40-320 mg/kg) is “well in excess of the concentrations that one might expect to see at cardiotoxic dosages of compounds I and II”. The concentration at 2 h is 13800 ng/mL in [6] (40 mg/kg), 19800 ng/mL in series [6] (80 mg/kg), 36700 ng/mL in series [6] (160 mg/kg) and 47000 ng/mL in series [6] (320 mg/kg). Besides, the Cardiotoxicity entry in [7] is listed as “does not appear to be cardiotoxic; also recorded: no incidence of cardiotoxic side effects in rats”. The “Bioavailability relative to either precursor compound” value in series [8] is on record as “more bioavailable”. In addition, the “Water solubility relative to either precursor compound” value in series [9] is “more water soluble”.
